Molecular target: EP4 (Homo sapiens, UniProt P35408)
Test: EP4 Antagonism by CRE-PLAP Reporter Assay (SE302 cells, PGE2-stimulated)
Assay type: cell-based
Set-up: HEK293 cells express endogenous EP4; endogenous in cells; host or cells: SE302 (HEK293 clone with CRE-PLAP reporter)
Conditions: SE302 (HEK293) cells, 3 ng/mL PGE2, overnight; single or multiple assay average values
Excerpt: PGE2 and [^3H]-labelled PGE2 were purchased from Cayman Chemical (Ann Arbor, Mich.) and Perkin Elmer (Waltham, Mass.), respectively. Mouse breast 4T1 cells (CRL-2539) were obtained from American Tissue Culture Collection. SE302 cell line is a clone of the HEK293 cells containing cAMP response element (CRE) promoter that when activated drives secretion of placental-like alkaline phosphatase (PLAP). HEK293 cells express endogenous EP4 and show induction of PLAP in response to PGE2 and EP4 agonists, but not EP1, 2 or 3 agonists (Chen Q, Muramoto K, Masaaki N, Ding Y, Yang H, Mackey M, Li W, Inoue Y, Ackermann K, Shrota H, Matsumoto I, Spyvee M, Schiller S, Sumida T, Gusovsky F, and Lamphier M. A novel antagonist of the prostaglandin E2 EP4 receptor inhibits Th1 differentiation and Th17 expansion and is orally active in arthritis models. British J Pharmacol, 2010, 160: 292-310). BalB/C female mice at 7-8 week age were purchased from Jackson Laboratory (Bar Harbor, Me.). Mice were maintained under specific pathogen-free conditions.
EP4 Antagonism by CRE-PLAP Reporter Assay: SE302 cells were maintained in DMEM/F12 (50:50) (MediaTech) supplemented with 10% FBS (Tissue Culture Biologicals) plus penicillin/streptomycin. When used for assays, cells were plated in a 96-well plate at 2×10^4 cells/100 μL/well in serum-free assay medium (DMEM/F12 supplemented with 0.1% BSA plus penicillin/streptomycin) and incubated for 4-6 h. Cells were then stimulated with 3 ng/mL of PGE2 in the presence or absence of various concentrations of test compound overnight, and PLAP activity was measured by mixing 15 μL of culture supernatants with 75 μL of Lumi-phos (Lumigen, Inc.) and 60 μL of assay buffer containing 8 mmol/L MgSO4 in 0.1 mol/L carbonate-bicarbonate buffer pH11 in a new 96-well black plate and incubated for 2 h at room temperature. The intensity of luminescence, which reflected the PLAP activity in the supernatant, was quantified with an Envision 2101 Multilabel Reader. Values obtained from DMSO treated samples in the presence of PGE2 were defined as 100% of control, whereas values obtained from DMSO treated samples in the absence of PGE2 were defined as 0% of control. % of control for compound treated samples was calculated as follows: (actual reading−0% of control)/(100% of control−0% of control)×100. IC50 value for each individual experiment was calculated using GraphPad Prism 6.02 (Lake Forest, Calif.) with % of control values.
Compounds of the present invention were assayed according to the methods as described above, and IC50 values, which may be single assay values or multiple assay average values, are summarized in Table 1. Compounds marked “ABS” show absolute stereochemistry.

Chain of EP4 (P35408 whole entry): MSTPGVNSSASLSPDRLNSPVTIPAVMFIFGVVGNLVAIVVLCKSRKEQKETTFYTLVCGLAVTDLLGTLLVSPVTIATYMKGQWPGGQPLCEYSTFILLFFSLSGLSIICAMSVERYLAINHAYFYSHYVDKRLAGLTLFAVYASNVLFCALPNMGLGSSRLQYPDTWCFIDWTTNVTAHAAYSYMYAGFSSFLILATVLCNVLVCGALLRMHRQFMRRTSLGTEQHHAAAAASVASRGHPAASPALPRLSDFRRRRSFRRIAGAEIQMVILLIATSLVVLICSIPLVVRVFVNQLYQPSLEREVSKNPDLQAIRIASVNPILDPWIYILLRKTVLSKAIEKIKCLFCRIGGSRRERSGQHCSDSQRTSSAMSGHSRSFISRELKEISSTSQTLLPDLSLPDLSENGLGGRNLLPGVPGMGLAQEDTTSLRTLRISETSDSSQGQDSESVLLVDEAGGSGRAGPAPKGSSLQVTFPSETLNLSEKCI

Structure (SMILES)	IC50 [nM]
COC(=O)c1ccc([C@H](C)NC(=O)c2c(C(F)(F)F)nn3c2N(Cc2ccc(C(F)(F)F)cc2)CC3)cc1 [Compound 2, Methyl (S)-4-(1-(6-(trifluoromethyl)-1-(4-(trifluoromethyl)benzyl)-2,3-dihydro-1H-imidazo[1,2-b]pyrazole-7-carboxamido)ethyl)benzoate]	3.9
C[C@H](NC(=O)c1c(C(F)(F)F)nn2c1N(Cc1ccc(C(F)(F)F)cc1)CC2)c1ccc(C(=O)O)cc1 [Compound 3, (S)-4-(1-(6-(trifluoromethyl)-1-(4-(trifluoromethyl)benzyl)-2,3-dihydro-1H-imidazo[1,2-b]pyrazole-7-carboxamido)ethyl)benzoic acid]	3.19
C[C@H](NC(=O)c1c(C(F)(F)F)nn2c1N(Cc1ccccc1C(F)(F)F)CC2)c1ccc(C(=O)O)cc1 [Compound 4, (S)-4-(1-(6-(trifluoromethyl)-1-(2-(trifluoromethyl)benzyl)-2,3-dihydro-1H-imidazo[1,2-b]pyrazole-7-carboxamido)ethyl)benzoic Acid]	22.4
C[C@H](NC(=O)c1c(C(F)(F)F)nn2c1N(Cc1cc(C(F)(F)F)cc(C(F)(F)F)c1)CC2)c1ccc(C(=O)O)cc1 [Compound 5, (S)-4-(1-(1-(3,5-bis(trifluoromethyl)benzyl)-6-(trifluoromethyl)-2,3-dihydro-1H-imidazo[1,2-b]pyrazole-7-carboxamido)ethyl)benzoic Acid]	45.9
C[C@H](NC(=O)c1c(C(F)(F)F)nn2c1N(Cc1cc(Cl)cc(C(F)(F)F)c1)CC2)c1ccc(C(=O)O)cc1 [Compound 6, (S)-4-(1-(1-(3-chloro-5-(trifluoromethyl)benzyl)-6-(trifluoromethyl)-2,3-dihydro-1H-imidazo[1,2-b]pyrazole-7-carboxamido)ethyl)benzoic Acid]	0.14
C[C@H](NC(=O)c1c(C(F)(F)F)nn2c1N(Cc1cc(Cl)cc(Cl)c1)CC2)c1ccc(C(=O)O)cc1 [Compound 7, (S)-4-(1-(1-(3,5-dichlorobenzyl)-6-(trifluoromethyl)-2,3-dihydro-1H-imidazo[1,2-b]pyrazole-7-carboxamido)ethyl)benzoic Acid]	0.32
COc1ccc(CN2CCn3nc(C(F)(F)F)c(C(=O)N[C@@H](C)c4ccc(C(=O)O)cc4)c32)cc1 [Compound 8, (S)-4-(1-(1-(4-methoxybenzyl)-6-(trifluoromethyl)-2,3-dihydro-1H-imidazo[1,2-b]pyrazole-7-carboxamido)ethyl)benzoic Acid]	8.03
COc1cccc(CN2CCn3nc(C(F)(F)F)c(C(=O)N[C@@H](C)c4ccc(C(=O)O)cc4)c32)c1 [Compound 9, (S)-4-(1-(1-(3-methoxybenzyl)-6-(trifluoromethyl)-2,3-dihydro-1H-imidazo[1,2-b]pyrazole-7-carboxamido)ethyl)benzoic Acid]	1.41
C[C@H](NC(=O)c1c(C(F)(F)F)nn2c1N(Cc1ccc(OC(F)(F)F)cc1)CC2)c1ccc(C(=O)O)cc1 [Compound 10, (S)-4-(1-(1-(4-(trifluoromethoxy)benzyl)-6-(trifluoromethyl)-2,3-dihydro-1H-imidazo[1,2-b]pyrazole-7-carboxamido)ethyl)benzoic Acid]	12.5
C[C@H](NC(=O)c1c(C(F)(F)F)nn2c1N(Cc1cccc(OC(F)(F)F)c1)CC2)c1ccc(C(=O)O)cc1 [Compound 11, (S)-4-(1-(1-(3-(trifluoromethoxy)benzyl)-6-(trifluoromethyl)-2,3-dihydro-1H-imidazo[1,2-b]pyrazole-7-carboxamido)ethyl)benzoic Acid]	0.41
C[C@H](NC(=O)c1c(C(F)(F)F)nn2c1N(Cc1cccc(Cl)c1)CC2)c1ccc(C(=O)O)cc1 [Compound 12, (S)-4-(1-(1-(3-chlorobenzyl)-6-(trifluoromethyl)-2,3-dihydro-1H-imidazo[1,2-b]pyrazole-7-carboxamido)ethyl)benzoic Acid]	2.23
C[C@H](NC(=O)c1c(C(F)(F)F)nn2c1N(Cc1ccc(Cl)c(Cl)c1)CC2)c1ccc(C(=O)O)cc1 [Compound 13, (S)-4-(1-(1-(3,4-dichlorobenzyl)-6-(trifluoromethyl)-2,3-dihydro-1H-imidazo[1,2-b]pyrazole-7-carboxamido)ethyl)benzoic Acid]	0.44
C[C@H](NC(=O)c1c(C(F)(F)F)nn2c1N(Cc1ccc(F)cc1)CC2)c1ccc(C(=O)O)cc1 [Compound 14, (S)-4-(1-(1-(4-fluorobenzyl)-6-(trifluoromethyl)-2,3-dihydro-1H-imidazo[1,2-b]pyrazole-7-carboxamido)ethyl)benzoic Acid]	0.58
C[C@H](NC(=O)c1c(C(F)(F)F)nn2c1N(Cc1cccc(F)c1)CC2)c1ccc(C(=O)O)cc1 [Compound 15, (S)-4-(1-(1-(3-fluorobenzyl)-6-(trifluoromethyl)-2,3-dihydro-1H-imidazo[1,2-b]pyrazole-7-carboxamido)ethyl)benzoic Acid]	1.65
C[C@H](NC(=O)c1c(C(F)(F)F)nn2c1N(Cc1ccccc1F)CC2)c1ccc(C(=O)O)cc1 [Compound 16, (S)-4-(1-(1-(2-fluorobenzyl)-6-(trifluoromethyl)-2,3-dihydro-1H-imidazo[1,2-b]pyrazole-7-carboxamido)ethyl)benzoic Acid]	1.4
Cc1ccc(CN2CCn3nc(C(F)(F)F)c(C(=O)N[C@@H](C)c4ccc(C(=O)O)cc4)c32)cc1 [Compound 17, (S)-4-(1-(1-(4-methylbenzyl)-6-(trifluoromethyl)-2,3-dihydro-1H-imidazo[1,2-b]pyrazole-7-carboxamido)ethyl)benzoic Acid]	1.65
Cc1cccc(CN2CCn3nc(C(F)(F)F)c(C(=O)N[C@@H](C)c4ccc(C(=O)O)cc4)c32)c1 [Compound 18, (S)-4-(1-(1-(3-methylbenzyl)-6-(trifluoromethyl)-2,3-dihydro-1H-imidazo[1,2-b]pyrazole-7-carboxamido)ethyl)benzoic Acid]	0.64
Cc1ccccc1CN1CCn2nc(C(F)(F)F)c(C(=O)N[C@@H](C)c3ccc(C(=O)O)cc3)c21 [Compound 19, (S)-4-(1-(1-(2-methylbenzyl)-6-(trifluoromethyl)-2,3-dihydro-1H-imidazo[1,2-b]pyrazole-7-carboxamido)ethyl)benzoic Acid]	3.6
CCc1ccc(CN2CCn3nc(C(F)(F)F)c(C(=O)N[C@@H](C)c4ccc(C(=O)O)cc4)c32)cc1 [Compound 20, (S)-4-(1-(1-(4-ethylbenzyl)-6-(trifluoromethyl)-2,3-dihydro-1H-imidazo[1,2-b]pyrazole-7-carboxamido)ethyl)benzoic Acid]	2.23
C[C@H](NC(=O)c1c(C(F)(F)F)nn2c1N(Cc1ccc(C(F)(F)F)cc1)CC2)c1ccc(C(=O)O)c(F)c1 [Compound 21, (S)-2-fluoro-4-(1-(6-(trifluoromethyl)-1-(4-(trifluoromethyl)benzyl)-2,3-dihydro-1H-imidazo[1,2-b]pyrazole-7-carboxamido)ethyl)benzoic Acid]	2.85
C[C@H](NC(=O)c1c(C(F)(F)F)nn2c1N(Cc1ccc(C(F)(F)F)cc1)CC2)c1ccc(C(=O)O)cc1F [Compound 22, (S)-3-fluoro-4-(1-(6-(trifluoromethyl)-1-(4-(trifluoromethyl)benzyl)-2,3-dihydro-1H-imidazo[1,2-b]pyrazole-7-carboxamido)ethyl)benzoic Acid]	1.91

From patent publication US11434246B2, “EP4 antagonists” (Eisai R&D Management Co., Ltd., priority 2015, dated 2022)
